Reference: article PMC4409382, “Structural Analysis of the 14-3-3ζ/Chibby Interaction Involved in Wnt/β-Catenin Signaling” (PLoS ONE, 2015)
Square brackets hold non-standard residues; d marks the D form. Ends that are not written are not given here. Peptide text beside a SMILES is read from it. pS = N[C@@H](COP(=O)(O)O)C(=O)O

Assays:
[1] = target: T1, 14-3-3ζ (Homo sapiens, UniProt P63104); experiment: ITC of Cby peptides titrated into 14-3-3ζ; type: binding; settings: for n (binding stoichiometry of monomeric 14-3-3 and Cby peptide): 25°C
T1 construct: Both full-length 14-3-3ζ and 14-3-3ζΔC12 were expressed as N-terminally His-tagged protein; His tag (TEV-cleavable) (N, cleaved yes); made in house; host or cells: Escherichia coli BL21 (DE3) pLysS
T1 sequence (P63104 1-245): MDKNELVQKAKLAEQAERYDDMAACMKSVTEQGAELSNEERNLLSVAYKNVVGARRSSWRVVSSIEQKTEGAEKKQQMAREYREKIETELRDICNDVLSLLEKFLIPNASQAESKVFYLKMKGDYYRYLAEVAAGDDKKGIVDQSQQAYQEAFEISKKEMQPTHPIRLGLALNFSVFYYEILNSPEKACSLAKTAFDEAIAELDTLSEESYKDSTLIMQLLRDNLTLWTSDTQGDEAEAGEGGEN
From the text: (§1) The human14-3-3ζ ORF purchased from GeneCopoeia was transferred into Gateway pDEST17 vector (Invitrogen). The 14-3-3ζΔC12, where the 12 C-terminal residues were deleted, was then generated from the full-length construct using QuikChange II Site-Directed Mutagenesis Kit (Strategene). Both full-length 14-3-3ζ and 14-3-3ζΔC12 were expressed as N-terminally His-tagged protein in Escherichia coli (E. coli) BL21 (DE3) pLysS in M9 medium. For unlabeled protein, protein expression was induced at an O.D.600 of 0.9 by adding 0.75 mM IPTG at 18°C for 24 h. The ^15N, ^13C, ^2H labeled 14-3-3ζΔC12 was produced by growing E. coli in deuterated M9 medium. Cells adapted to 70% D2O were used to inoculate a 1 L culture of M9 prepared in 100% D2O. Cells were grown at 37°C and overexpression was induced at an O.D.600 of 0.6 with 0.75 mM IPTG. After a 60-h induction at 18°C, the cells were harvested. All 14-3-3ζ constructs used in this study were purified from the crude lysate by affinity chromatography using Ni Sepharose Fast Flow beads (Amersham Biosciences). The tag was then cleaved by overnight incubation with His-tagged tobacco etch virus (TEV) protease at 25°C. The cleaved 14-3-3ζ, which retains an N-terminal glycine, was purified by passing the mixture through Ni Sepharose Fast Flow beads. The final yields for the 14-3-3ζ proteins were ~50 mg per L of M9 media (including deuterated media).
(§2) The Cby peptides used in this study were purchased from GenScript USA Inc. and the TUFTS University Core Facility. From GenScript USA Inc.: Cby 13-mer (NH2-^12KTPPRKSASLSNL^24-COOH), Cby S20D 13-mer (NH2-^12KTPPRKSADLSNL^24-COOH), Cby S20E 13-mer (NH2-^12KTPPRKSAELSNL^24-COOH), pCby 13-mer (NH2-^12KTPPRKSApSLSNL^24-COOH) and pCby 18-mer ((NH2-^12KTPPRKSApSLSNLHSLDR^29-COOH). From TUFTS: pCby 7-mer (Ac-^16RKSApSLS^22-NH2), pCby 11-mer (NH2-^12KTPPRKSApSLS^22-NH2), pCby S22P 7-mer (Ac-^16RKSApSLP^22-NH2), pCby S22P 13-mer (NH2-^12KTPPRKSApSLPNL^24-COOH) and pCby S22P 18-mer ([…]). Peptides were dissolved and dialyzed in 50 mM sodium phosphate, 100 mM NaCl at pH 6.8 for ITC and NMR experiments.
(§3) ITC experiments were performed on a VP-ITC instrument (MicroCal) at 25°C. The protein and peptide samples were dialyzed into a buffer containing 50 mM sodium phosphate, 100 mM NaCl, 1 mM DTT at pH 6.8 and degassed before the experiments. In a typical experiment, 5 μL aliquots of ~1–2 mM peptide were titrated stepwise into the 1.4 mL sample cell containing ~100–200 μM 14-3-3ζ. The association constant (Ka), molar binding stoichiometry (n) and the binding enthalpy (ΔH), entropy (ΔS) and Gibbs free energy (ΔG) were determined by fitting the binding isotherm to a one-site model with MicroCal Origin7 software. All ITC experiments were performed in duplicate. A duplicate set of thermodynamic derived binding parameters are found in S1 Table. Peptide and protein concentrations were determined from amino acid analysis (Amino Acid Analysis Facility, SickKids, Toronto, ON).

[2] = target: T2, 14-3-3ζ K49A (Homo sapiens, UniProt P63104, K49A); experiment: ITC of Cby peptides titrated into 14-3-3ζ K49A; type: binding; settings: for n (binding stoichiometry of monomeric 14-3-3 and Cby peptide): 25°C, pH 6.8
T2 construct: His tag (TEV-cleavable) (N, cleaved yes); made in house
T2 sequence (P63104 1-245 K49A): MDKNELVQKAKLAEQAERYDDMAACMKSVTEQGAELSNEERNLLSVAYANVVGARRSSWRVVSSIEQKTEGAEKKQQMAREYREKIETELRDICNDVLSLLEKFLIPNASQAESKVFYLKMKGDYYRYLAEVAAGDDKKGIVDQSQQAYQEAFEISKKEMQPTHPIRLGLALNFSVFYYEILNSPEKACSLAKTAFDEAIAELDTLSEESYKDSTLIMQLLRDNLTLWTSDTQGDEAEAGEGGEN
From the text: In numerous crystal structures of 14-3-3 proteins in complex with phosphorylated S/T peptides, the conserved K49 (numbering refers to the ζ isoform) side-chain is observed forming a hydrogen bond with the phosphate group on pS/pT (illustrated in S3 Fig with an elucidated 14-3-3ζ/Raf1 structure). With Cby’s S22 side-chain juxtaposed between 14-3-3ζ residues K49 and R56, the K49 side-chain is sterically hindered from contacting pS20. As such, we speculated that the increases in binding affinity to 14-3-3ζ observed for the S22P mutant peptides might be the result of the favorable contacts between K49 and pS20 facilitated by the proline-induced conformational changes. To test this, a K49A mutation was introduced into 14-3-3ζ and ITC titrations were performed with 18-mer WT and S22P Cby peptides.
as §2, §3

[3] = target: T3, 14-3-3ζΔC12 (Homo sapiens, UniProt P63104); experiment: ITC of Cby peptides titrated into 14-3-3ζΔC12; type: binding; settings: 14-3-3ζΔC12 in ITC cell; for n (binding stoichiometry of monomeric 14-3-3 and Cby peptide): 25°C, pH 6.8
T3 construct: The 14-3-3ζΔC12, where the 12 C-terminal residues were deleted, was then generated from the full-length construct; His tag (TEV-cleavable) (N, cleaved yes); made in house; host or cells: Escherichia coli BL21 (DE3) pLysS
T3 sequence (P63104 1-233 limits assumed): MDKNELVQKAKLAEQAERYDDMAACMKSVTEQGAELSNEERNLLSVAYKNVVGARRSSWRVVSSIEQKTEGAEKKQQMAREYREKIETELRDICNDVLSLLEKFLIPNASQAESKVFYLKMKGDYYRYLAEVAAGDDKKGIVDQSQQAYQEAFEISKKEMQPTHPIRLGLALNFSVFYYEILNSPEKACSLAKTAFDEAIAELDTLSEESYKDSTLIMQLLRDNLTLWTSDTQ
From the text: as §1, §2, §3

[4] = target: T4, 14-3-3ζ (human, UniProt P63104 1-245); experiment: ITC; duplicate set of titrations; 5 uL aliquots of ~1-2 mM peptide titrated into the 1.4 mL cell with ~100-200 uM 14-3-3ζ; 25 °C; 50 mM sodium phosphate, 100 mM NaCl, 1 mM DTT, pH 6.8; one-site model; n per 14-3-3 monomer; settings: both partners purified
T4 construct: N-terminal glycine retained after TEV cleavage of the His tag; 14-3-3 zeta, human, ORF purchased from GeneCopoeia, full-length construct; Dimer (~56 kDa); the stoichiometry n counts on the 14-3-3 monomer; also called full-length 14-3-3ζ; source: E. coli BL21 (DE3) pLysS, purified (Ni Sepharose, TEV cleavage, second Ni Sepharose pass); not shown: His tag, N-terminal, cleaved
T4 sequence: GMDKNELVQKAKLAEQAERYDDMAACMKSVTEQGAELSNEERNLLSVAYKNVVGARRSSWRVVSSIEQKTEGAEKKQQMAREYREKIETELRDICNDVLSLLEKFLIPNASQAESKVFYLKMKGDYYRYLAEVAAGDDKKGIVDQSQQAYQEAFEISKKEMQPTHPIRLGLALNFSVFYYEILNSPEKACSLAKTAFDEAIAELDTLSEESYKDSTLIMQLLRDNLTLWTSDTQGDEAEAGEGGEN

[5] = 298.15 K, duplicate set (S1 Table)
[6] = 298.15 K, pH 6.8, Table 1 set of duplicate experiments
[7] = 14-3-3ζ K49A in ITC cell, 298.15 K, Table 1 set of duplicate experiments
[8] = 14-3-3ζ K49A in ITC cell, 298.15 K, duplicate set (S1 Table)
[9] = 298.15 K, Table 1 set of duplicate experiments

CC(C)C[C@H](NC(=O)[C@H](COP(=O)(O)O)NC(=O)[C@H](C)NC(=O)[C@H](CO)NC(=O)[C@H](CCCCN)NC(=O)[C@H](CCCNC(=N)N)NC(=O)[C@@H]1CCCN1C(=O)[C@@H]1CCCN1C(=O)[C@@H](NC(=O)[C@@H](N)CCCCN)[C@@H](C)O)C(=O)N[C@@H](CO)C(=O)N[C@@H](CC(N)=O)C(=O)N[C@@H](CC(C)C)C(=O)N[C@@H](Cc1c[nH]cn1)C(=O)N[C@@H](CO)C(=O)N[C@@H](CC(C)C)C(=O)N[C@@H](CC(=O)O)C(=O)N[C@@H](CCCNC(=N)N)C(=O)O [Cby 18-mer] (H-KTPPRKSA[pS]LSNLHSLDR-OH)
greater affinity compared to the Cby 7-mer (fold, in words) [1]: nine-fold
n (binding stoichiometry of monomeric 14-3-3 and Cby peptide) ([1]; 50 mM sodium phosphate, 100 mM NaCl, 1 mM DTT, pH 6.8, one-site model, Table 1 set of duplicate experiments): 0.96
n (binding stoichiometry of monomeric 14-3-3 and Cby peptide) ([1]; pH 6.8, duplicate set (S1 Table)): 0.94
T∆S [1, 5]: 2.91 kcal/mol
∆G [1, 5]: -7.24 ± 0.04 kcal/mol
∆H [1, 5]: -4.33 ± 0.06 kcal/mol
TΔS [1, 6]: 2.93 kcal/mol
ΔG [1, 6]: -7.28 ± 0.03 kcal/mol
ΔH [1, 6]: -4.35 ± 0.05 kcal/mol
n (binding stoichiometry of monomeric 14-3-3 and Cby peptide) ([2]; 14-3-3ζ K49A in ITC cell, Table 1 set of duplicate experiments): 1.01
n (binding stoichiometry of monomeric 14-3-3 and Cby peptide) ([2]; 14-3-3ζ K49A in ITC cell, duplicate set (S1 Table)): 1.07
TΔS [2, 7]: 3.23 kcal/mol
ΔG [2, 7]: -7.39 ± 0.05 kcal/mol
ΔH [2, 7]: -4.16 ± 0.05 kcal/mol
T∆S [2, 8]: 3.41 kcal/mol
∆G [2, 8]: -7.17 ± 0.06 kcal/mol
∆H [2, 8]: -3.76 ± 0.07 kcal/mol
ΔΔG of binding, 14-3-3ζ K49A compared to WT 14-3-3ζ ([2]; ITC, 18-mer peptides): ~ 0.1 kcal/mol
effect of 14-3-3ζ K49A mutation on binding affinity (fold reduction) ([2]; ITC, versus WT 14-3-3ζ): does not affect
n (binding stoichiometry of monomeric 14-3-3 and Cby peptide) ([3]; Table 1 set of duplicate experiments): 1.04
n (binding stoichiometry of monomeric 14-3-3 and Cby peptide) ([3]; duplicate set (S1 Table)): 1.02
TΔS [3, 9]: 3.70 kcal/mol
ΔG [3, 9]: -7.05 ± 0.03 kcal/mol
ΔH [3, 9]: -3.35 ± 0.06 kcal/mol
T∆S [3, 5]: 3.77 kcal/mol
∆G [3, 5]: -6.92 ± 0.03 kcal/mol
∆H [3, 5]: -3.15 ± 0.04 kcal/mol

B1: Cby 18-mer L24A (peptide)
peptide: KTPPRKSA[pS]LSNAHSLDR
notes: Chibby (Cby), human, residues 12-29 with L24A; also called Cby L24A 18-mer; source: synthetic peptide, bought (GenScript USA Inc. or TUFTS University Core Facility)
Kd [4]: 25 µM
stoichiometry N [4]: 1.05

B2: pCby 11-mer (peptide)
peptide: KTPPRKSA[pS]LS-NH2
modifications: N-terminus assumed
SMILES: CC(C)C[C@H](NC(=O)[C@H](COP(=O)(O)O)NC(=O)[C@H](C)NC(=O)[C@H](CO)NC(=O)[C@H](CCCCN)NC(=O)[C@H](CCCNC(=N)N)NC(=O)[C@@H]1CCCN1C(=O)[C@@H]1CCCN1C(=O)[C@@H](NC(=O)[C@@H](N)CCCCN)[C@@H](C)O)C(=O)N[C@@H](CO)C(N)=O
notes: Chibby (Cby), human, residues 12-22; source: synthetic peptide, bought: TUFTS University Core Facility
Kd [4]: 17.5 µM
stoichiometry N [4]: 0.96

B3: pCby S22P 13-mer (peptide)
peptide: KTPPRKSA[pS]LPNL
notes: Chibby (Cby), human, residues 12-24 with S22P; also called Cby 13-mer S22P; source: synthetic peptide, bought: TUFTS University Core Facility
Kd [4]: 1.3 µM
stoichiometry N [4]: 1.02

B4: pCby 7-mer (peptide)
peptide: Ac-RKSA[pS]LS-NH2
SMILES: CC(=O)N[C@@H](CCCNC(=N)N)C(=O)N[C@@H](CCCCN)C(=O)N[C@@H](CO)C(=O)N[C@@H](C)C(=O)N[C@@H](COP(=O)(O)O)C(=O)N[C@@H](CC(C)C)C(=O)N[C@@H](CO)C(N)=O
notes: Chibby (Cby), human, residues 16-22; also called 16RKSA(pS)LS22; source: synthetic peptide, bought: TUFTS University Core Facility
Kd [4]: 47.6 µM
stoichiometry N [4]: 0.94

B5: pCby S22P 7-mer (peptide)
peptide: Ac-RKSA[pS]LP-NH2
SMILES: CC(=O)N[C@@H](CCCNC(=N)N)C(=O)N[C@@H](CCCCN)C(=O)N[C@@H](CO)C(=O)N[C@@H](C)C(=O)N[C@@H](COP(=O)(O)O)C(=O)N[C@@H](CC(C)C)C(=O)N1CCC[C@H]1C(N)=O
notes: Chibby (Cby), human, residues 16-22 with S22P; also called Cby 7-mer S22P; 16RKSA(pS)LP22; source: synthetic peptide, bought: TUFTS University Core Facility
Kd [4]: 3.2 µM
stoichiometry N [4]: 1.02
